Assay: Stability investigation of the crystalline forms (HPLC purity, samples placed open and flat)
Assay type: physicochemical
Description: The crystalline forms of the compound of formula I obtained from each example and each comparative preparation example were analyzed by HPLC.
Instrument and equipment: Agilent-1100 High Performance Liquid Chromatograph;
Chromatographic conditions and system suitability test: octadecylsilane-bonded silica gel was used as a filler; water (pH adjusted to 3.8 with phosphoric acid):acetonitrile (45:55) was used as a mobile phase; detection wavelength was 220 nm; theoretical tower plate number should not be less than 2000; the resolution should not be less than 2.0; and the resolution from other adjacent impurity peaks should meet the requirements.
Test solution: an appropriate amount of the compound obtained from each example was accurately weighed, dissolved in anhydrous ethanol, and diluted quantitatively to prepare a solution containing about 1 mg compound per 1 ml solution as the test solution.
Reference solution: 1 ml of reference solution of the compound of formula I was accurately measured, and placed into a 100 ml volumetric flask, diluted with anhydrous ethanol to the scale, and shaken well to obtain the reference solution. Reference substance: calibrated standard substance of the compound of formula I provided by Chengdu Shibeikang Biomedical Technology Co., Ltd.
Determination method: according to General Chapter 0512 High Performance Liquid Chromatography in Chinese Pharmacopoeia (2015 Edition) Volume IV, 10 μl of the test solution and 10 μl of the reference solution were accurately measured respectively, and injected into the liquid chromatograph to record chromatograms.
Samples of the crystalline form B from each Example and the crystalline form from each comparative preparation example were placed in an open and flat way to investigate 5-day stability and 10-day stability of the samples under the conditions of light (4500 Lux), heating at 40° C. and 60° C. and high humidity of 75% and 90%, respectively. The detection was carried out according to the determination method in Test 1, and HPLC purity detection results were shown in the table below.

Structure (SMILES)	HPLC purity Day 0 (%) (heating at 40° C.)	HPLC purity Day 5 (%) (heating at 40° C.)	HPLC purity Day 10 (%) (heating at 40° C.)	HPLC purity Day 0 (%) (heating at 60° C.)	HPLC purity Day 5 (%) (heating at 60° C.)	HPLC purity Day 10 (%) (heating at 60° C.)	HPLC purity Day 0 (%) (high humidity of 90%)	HPLC purity Day 5 (%) (high humidity of 90%)	HPLC purity Day 10 (%) (high humidity of 90%)	HPLC purity Day 0 (%) (light (4500 Lux))	HPLC purity Day 5 (%) (light (4500 Lux))	HPLC purity Day 10 (%) (light (4500 Lux))
COC(=O)[C@H](c1ccccc1Cl)N1CC[C@@H]2SC(=O)C=C2C1 (racemic) [Comparative preparation example 1, methyl (S)-2-(2-chlorophenyl)-2-((S)-2-oxo-2,6,7,7a-tetrahydrothieno[3,2-c]pyridin-5(4H)-yl)acetate, reference compound]	96.89%	96.31%	95.35%	96.89%	95.45%	94.37%	96.89%	96.75%	96.69%	96.89%	96.80%	96.75%
COC(=O)[C@H](c1ccccc1Cl)N1CC[C@@H]2SC(=O)C=C2C1 (racemic) [Comparative preparation example 2, methyl (S)-2-(2-chlorophenyl)-2-((S)-2-oxo-2,6,7,7a-tetrahydrothieno[3,2-c]pyridin-5(4H)-yl)acetate, reference compound]	96.43%	96.01%	94.78%	96.43%	95.23%	93.89%	96.43%	96.33%	96.23%	96.43%	96.35%	96.27%
COC(=O)[C@H](c1ccccc1Cl)N1CC[C@@H]2SC(=O)C=C2C1 (racemic) [Comparative preparation example 3, methyl (S)-2-(2-chlorophenyl)-2-((S)-2-oxo-2,6,7,7a-tetrahydrothieno[3,2-c]pyridin-5(4H)-yl)acetate, reference compound]	97.73%	97.22%	96.13%	97.73%	96.60%	95.23%	97.73%	97.66%	97.58%	97.73%	97.70%	97.65%
COC(=O)[C@H](c1ccccc1Cl)N1CC[C@@H]2SC(=O)C=C2C1 [Example 1, methyl (S)-2-(2-chlorophenyl)-2-((S)-2-oxo-2,6,7,7a-tetrahydrothieno[3,2-c]pyridin-5(4H)-yl)acetate]	99.82%	99.82%	99.81%	99.82%	99.79%	99.77%	99.82%	99.82%	99.81%	99.82%	99.82%	99.82%
COC(=O)[C@H](c1ccccc1Cl)N1CC[C@@H]2SC(=O)C=C2C1 [Example 2, methyl (S)-2-(2-chlorophenyl)-2-((S)-2-oxo-2,6,7,7a-tetrahydrothieno[3,2-c]pyridin-5(4H)-yl)acetate]	99.92%	99.92%	99.91%	99.92%	99.87%	99.84%	99.92%	99.92%	99.91%	99.92%	99.92%	99.92%
COC(=O)[C@H](c1ccccc1Cl)N1CC[C@@H]2SC(=O)C=C2C1 [Example 3, methyl (S)-2-(2-chlorophenyl)-2-((S)-2-oxo-2,6,7,7a-tetrahydrothieno[3,2-c]pyridin-5(4H)-yl)acetate]	99.94%	99.93%	99.93%	99.94%	99.90%	99.88%	99.94%	99.94%	99.94%	99.94%	99.94%	99.94%
COC(=O)[C@H](c1ccccc1Cl)N1CC[C@@H]2SC(=O)C=C2C1 [Example 4, methyl (S)-2-(2-chlorophenyl)-2-((S)-2-oxo-2,6,7,7a-tetrahydrothieno[3,2-c]pyridin-5(4H)-yl)acetate]	99.89%	99.89%	99.88%	99.89%	99.87%	99.86%	99.89%	99.89%	99.89%	99.89%	99.89%	99.89%
COC(=O)[C@H](c1ccccc1Cl)N1CC[C@@H]2SC(=O)C=C2C1 [Example 5, methyl (S)-2-(2-chlorophenyl)-2-((S)-2-oxo-2,6,7,7a-tetrahydrothieno[3,2-c]pyridin-5(4H)-yl)acetate]	99.87%	99.87%	99.87%	99.87%	99.85%	99.85%	99.87%	99.87%	99.86%	99.87%	99.87%	99.86%
COC(=O)[C@H](c1ccccc1Cl)N1CC[C@@H]2SC(=O)C=C2C1 [Example 6, methyl (S)-2-(2-chlorophenyl)-2-((S)-2-oxo-2,6,7,7a-tetrahydrothieno[3,2-c]pyridin-5(4H)-yl)acetate]	99.91%	99.91%	99.90%	99.91%	99.89%	99.88%	99.91%	99.91%	99.90%	99.91%	99.91%	99.90%
COC(=O)[C@H](c1ccccc1Cl)N1CC[C@@H]2SC(=O)C=C2C1 [Example 7, methyl (S)-2-(2-chlorophenyl)-2-((S)-2-oxo-2,6,7,7a-tetrahydrothieno[3,2-c]pyridin-5(4H)-yl)acetate]	99.88%	99.88%	99.88%	99.88%	99.85%	99.84%	99.88%	99.88%	99.87%	99.88%	99.88%	99.87%
